The text below walks through data of US8022095B2, “Methods of treating headaches using 5-HT agonists in combination with long-acting NSAIDs” (Pozen, Inc., priority 1996, dated 2011).

Molecules are shown by their SMILES. Read-outs that look alike come from different tables or passages of the source.

For data set [1] the following is noted: cited from earlier work; for time of peak plasma concentration after oral administration: oral dosing; for half-life: pharmacokinetic / plasma half-life; for lead time to peak plasma levels: list follows the words 'intramuscular routes will generally have shorter lead times to peak plasma levels'.
For another data set, the target named is T1, COX-2 (Homo sapiens, UniProt P35354).
T1 sequence (P35354 18-604): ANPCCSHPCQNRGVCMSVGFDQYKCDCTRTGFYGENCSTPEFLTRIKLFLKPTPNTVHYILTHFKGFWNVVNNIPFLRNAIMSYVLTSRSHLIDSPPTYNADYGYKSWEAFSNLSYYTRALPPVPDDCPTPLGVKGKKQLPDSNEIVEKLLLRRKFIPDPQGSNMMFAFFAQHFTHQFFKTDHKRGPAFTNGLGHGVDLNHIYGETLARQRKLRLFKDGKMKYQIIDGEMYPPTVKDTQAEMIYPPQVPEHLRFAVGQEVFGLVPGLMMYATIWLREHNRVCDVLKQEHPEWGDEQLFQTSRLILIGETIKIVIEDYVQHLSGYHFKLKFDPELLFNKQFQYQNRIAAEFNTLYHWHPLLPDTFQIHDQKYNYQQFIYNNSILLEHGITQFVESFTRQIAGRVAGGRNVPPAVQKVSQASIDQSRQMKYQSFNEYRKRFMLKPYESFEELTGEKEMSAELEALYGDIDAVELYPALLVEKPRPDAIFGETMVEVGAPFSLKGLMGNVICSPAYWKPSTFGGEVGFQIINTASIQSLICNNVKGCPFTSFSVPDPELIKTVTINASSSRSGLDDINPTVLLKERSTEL
Particulars: reported (Feldman 2000; Sengupta 1999); cited from earlier work.

In another data set the test system is migraine. In words: Comparison of MT 400, triptan alone, NSAID alone and placebo in migraine patients. In kind it is in vivo, human. Particulars: for % with nausea / % with phonophobia / % with photophobia / Number with nausea / Number with phonophobia / Number with photophobia: at 2 hours; for Number with nausea / Number with phonophobia / Number with photophobia / Sustained Response (Sustained Pain Response), number of subjects / Sustained Pain Free responders, number of subjects: N = 250 / 229 / 247; for patients with improvement from moderate or severe pain at baseline to mild or no pain: at two hours; for Sustained Response (Sustained Pain Response), percentage of subjects: initial pain response without return of pain for 24 hours after dosing; for Sustained Response (Sustained Pain Response), number of subjects: initial pain response without return of pain for 24 hours; for Sustained Pain Free responders, number of subjects: pain score 0 at 2 hours and from 2 to 24 hours without rescue; for therapeutic gain, Sustained Pain Free / therapeutic gain over placebo, sustained response / therapeutic gain over placebo, pain response: response rate minus placebo response; for therapeutic gain over placebo, sustained response: 24 hours; for therapeutic gain over placebo, pain response: pain response at two hours. Here is the method:
In these experiments, a comparison was made between: patients administered triptan alone; patients administered NSAID alone; patients administered a combination of triptan and NSAID (“MT400”); and, in some cases, patients administered a placebo.
Sustained response was evaluated based upon the number of patients that experience an initial pain response without a return of pain for the 24 hours after dosing.
The most desirable outcome for the treatment of migraine is that the pain be eliminated quickly and not return. This outcome measure is termed Sustained Pain Free. Responders are defined as patients having a pain score of 0 at 2 hours and nothing more than 0 from 2 to 24 hours post dose without the need for rescue.
As migraine is a pathological complex characterized by unilateral headache, often accompanied by associated symptoms of nausea, photophobia and phonophobia, efficacy against these other parameters is important in evaluating the efficacy of a drug candidate.

The test system of the next data set is migraine attack. Here is the method:
Headache relief at two hours was determined in a manner identical to that described above, but the relapse and sustained response rates were calculated based solely on a return of moderate or severe headache pain (i.e., no “rescue medication” protocol was used as a separate indicator of relapse).

The test system of another data set is migraine attacks. Description: Open-label, randomized out-patient study, 16 migraine patients with high relapse rate, two successive migraine attacks. In kind it is in vivo, human. Here is the method:
Headache pain was assessed by the patients on a 4-point scale (no pain, mild pain, moderate pain, or severe pain). Each patient was treated for two migraine attacks of moderate or severe intensity at baseline and pain scores were recorded every 30 minutes for the first two hours following dosing and at 3, 4, 6, 12 and 24 hours post-dose. “Relapse” was defined to occur in those patients who responded with an adequate reduction in headache pain (moderate or severe at baseline, reduced to no pain or mild pain) at 2 hours after administration and, in whom, over the next 22 hours either: (a) headache pain returned to moderate or severe intensity; or (b) “rescue medication” was required to treat the recurrent headache pain.

In general, half-life refers to the time in which the quantity being followed falls by half.

For `Cc1onc(-c2ccccc2)c1-c1ccc(S(N)(=O)=O)cc1` [valdecoxib], in data set [1], the “time of peak plasma concentration after oral administration” value (“time of peak plasma concentration” below) is 2 to 3 h and the half-life is 8 to 11 h.
Consider `O=C(c1ccccc1)c1ccc2n1CCC2C(=O)O` (stereo not shown) [ketorolac], for which the half-life in data set [1] is 8 to 9 h.
`Cc1ccc(Cl)c(Nc2ccccc2C(=O)O)c1Cl` [meclofenamate, Meclofenamate sodium]: the “lead time to peak plasma levels” value in data set [1] is 0.5 to 1 h.
Consider `CCc1cccc2c3c([nH]c12)C(CC)(CC(=O)O)OCC3` (stereo not shown) [etodolac], for which the “specificity for COX-2” value on COX-2 is given as “highly specific for COX-2”. In addition, the half-life entry in data set [1] is given as “about 7 hours”.
Take `Cc1ccc(-c2cc(C(F)(F)F)nn2-c2ccc(S(N)(=O)=O)cc2)cc1` [Celecoxib, celecoxib]: in data set [1], the “time of peak plasma concentration” value is “approximately 3 hours” and the half-life result is given as “approximately 11 hours”.
On to `CN1C(C(=O)Nc2ccccn2)=C(O)c2ccccc2S1(=O)=O` [piroxicam], for which the “time of dosing until steady state plasma concentrations are reached” value in data set [1] (in vivo) is listed as 7 to 12 days.
On to `CC(C(=O)O)c1ccc(-c2ccccc2)c(F)c1` (stereo not shown) [flurbiprofen], for which, in data set [1], the half-life entry is reported as “about 6 hours”.
As for `COc1ccc2cc(CCC(C)=O)ccc2c1` [nabumetone], in data set [1], the “lead time to peak plasma levels” value was 2.5 to 4 h and the half-life was 22 to 30 h.
`COc1ccc2cc([C@H](C)C(=O)O)ccc2c1` [naproxen]: in the data set on migraine, the “% with nausea” value is recorded as “(31.2%)”, the “% with phonophobia” value is listed as “(47.8%)”, the “% with photophobia” value is “(57.5%)” and the Number with nausea is reported as 77. Also, in the data set with migraine, the Number with phonophobia is given as 118; the Number with photophobia came out at 142; the “patients with improvement from moderate or severe pain at baseline to mild or no pain” value was determined as 46%; the “Sustained Response (Sustained Pain Response), percentage of subjects” value worked out at 24.7%. In addition, in the data set on migraine, the “Sustained Response (Sustained Pain Response), number of subjects” value came out at 61; the “Sustained Pain Free responders, number of subjects” value amounted to 29; the “therapeutic gain, Sustained Pain Free” value turned out to be 6.7%; the “therapeutic gain over placebo, sustained response” value is reported as 8%. For the same compound, the “therapeutic gain over placebo, pain response” value with migraine stood at 19%. In addition, the “Sustained Response (Sustained Pain Response), percentage of subjects” value in the data set with migraine (listed as Naproxen) is recorded as “(24.7%)”. Further, in the data set on migraine (pain score 0 at 2 hours and nothing more than 0 from 2 to 24 hours post dose without rescue), the “Sustained Pain Free responders, percentage of subjects” value is on record as “(11.7%)”. Moreover, the sustained response rate with migraine attack (responds initially and no relapse in twenty-four hours) was found to be 46%.
As for `COc1ccc2cc([C@H](C)C(=O)O)ccc2c1` [naproxen sodium], the relapse rate in the data set on migraine attack (500 mg naproxen sodium alone, based solely on return of moderate or severe headache pain) stood at 26%.
Take `CNS(=O)(=O)Cc1ccc2[nH]cc(CCN(C)C)c2c1` [sumatriptan]: the “24 hour sustained response” value in the data set with migraine attacks (% of 16 patients, relapse criteria including rescue medication) is 44%. The “number of patients with 24 hour sustained response” value with migraine attacks (of 16 patients, relapse criteria including rescue medication) was “seven”. The relapse rate in the data set on migraine attacks (re-analysed, based solely on return of moderate or severe headache pain) was determined as 40%. Also, in the data set on migraine attacks (relapse = return of moderate or severe pain or rescue medication within 22 hours after the 2 hour response), the “relapse rate of responding patients” value was 46%. The same compound showed a sustained response rate in the data set with migraine attacks (responds initially and no relapse in twenty-four hours, criteria of the second study) of 56%. The peak serum concentration in data set [1] (oral doses of about 1-300 mg) is 1 to 300 ng/mL; in data set [1] (subcutaneous injections of about 1 to 8 mg) it was 1 to 150 ng/mL.
On to `CN1C(C(=O)Nc2ccccn2)=C(O)c2sc(Cl)cc2S1(=O)=O` [lornoxicam], for which the “time of peak plasma concentration” value in data set [1] is reported as “approximately two”. Moreover, the half-life entry is listed as “about 4 hours” in data set [1] and “approximately 4 hours” in data set [1] (listed as Lornoxicam).
Consider `CS(=O)(=O)c1ccc(C2=C(c3ccccc3)C(=O)OC2)cc1` [rofecoxib], for which, in data set [1], the “time of peak plasma concentration” value is 2 to 3 h and the half-life entry is “about 17 hours”.
Turning to `O=C(O)CCc1nc(-c2ccccc2)c(-c2ccccc2)o1` [oxaprozin], the half-life in data set [1] and in data set [1] (listed as Oxaprozin) was 42 to 50 h throughout.
`Cc1cccc(Nc2ccccc2C(=O)O)c1C` [mefenamic acid]: at COX-2, the “specificity for COX-2” value is “highly specific for COX-2”. Further, in data set [1], the half-life result is “up to 4 hours”.
Regarding `CNS(=O)(=O)Cc1ccc2[nH]cc(CCN(C)C)c2c1` [Imitrex, sumatriptan succinate], in the data set with migraine, the “% with nausea” value is reported as “(31.9%)”, the “% with phonophobia” value was “(44.5%)”, the “% with photophobia” value is listed as “(50.2%)” and the Number with nausea is 73. Also, in the data set on migraine, the Number with phonophobia was 102; the Number with photophobia is recorded as 115; the “patients with improvement from moderate or severe pain at baseline to mild or no pain” value amounted to 49%; the “Sustained Response (Sustained Pain Response), number of subjects” value worked out at 66. In the data set on migraine, the “Sustained Pain Free responders, number of subjects” value came to 25; the “therapeutic gain, Sustained Pain Free” value turned out to be 5.9%; the “therapeutic gain over placebo, sustained response” value was 12%; the “therapeutic gain over placebo, pain response” value worked out at 22%.
With `COc1ccc2c(c1)c(CC(=O)O)c(C)n2C(=O)c1ccc(Cl)cc1` [indomethacin], the “lead time to peak plasma levels” value in data set [1] is 1 to 4 h.
